Data: patent US20240409585A1, “MACROCYCLIC IMMUNOMODULATORS” (priority 2021, published 2024)
Numbered stars: 1 amine (or outer) side, 2 acyl side, 3 side chain; on linkers, the order of the positions; unused ones are H or OH. Bridge positions count the residues as written; N and C are the ends. Square brackets hold non-standard residues; d marks the D form. Peptide text beside a SMILES is read from it. * marks the point of attachment. Bip(4'-COOH) = N[C@@H](Cc1ccc(-c2ccc(C(=O)O)cc2)cc1)C(=O)O; Bip(4'-NHAc) = CC(=O)Nc1ccc(-c2ccc(C[C@H](N)C(=O)O)cc2)cc1; Phe(3-CF3) = N[C@@H](Cc1cccc(C(F)(F)F)c1)C(=O)O; Ala(morpholin-4-yl) = N[C@@H](CN1CCOCC1)C(=O)O; Phe(4-CONH2) = NC(=O)c1ccc(C[C@H](N)C(=O)O)cc1; Phe(4-COOH) = N[C@@H](Cc1ccc(C(=O)O)cc1)C(=O)O; X5 = CS(=O)(=O)NC(=O)C[C@H](N[*:1])C(=O)[*:2]; Bip = N[C@@H](Cc1ccc(-c2ccccc2)cc1)C(=O)O; Phe(3-Me) = Cc1cccc(C[C@H](N)C(=O)O)c1; Abu(3S-NH2) = C[C@H](N)[C@H](N)C(=O)O; Val(3-OH) = CC(C)(O)[C@H](N)C(=O)O; hPhe = N[C@@H](CCc1ccccc1)C(=O)O; Cha = N[C@@H](CC1CCCCC1)C(=O)O; aThr = C[C@H](O)[C@H](N)C(=O)O; Suc = O=C(CCC(=O)[*:2])[*:1]; Carboxymethyl = O=C(O)C*; NMeA = CN[C@@H](C)C(=O)O; Orn = NCCC[C@H](N)C(=O)O; Dab = NCC[C@H](N)C(=O)O; Dap = NC[C@H](N)C(=O)O; X9 = O=C(CCF)*

Target: T1, Alexa fluor-647 labeled human PD-L1-Ig binding to Jurkat cell line over-expressing human PD-1 (Homo sapiens, UniProt Q15116)
T1 construct: expressed in transfected cells; host or cells: Jurkat
T1 sequence (Q15116 25-288): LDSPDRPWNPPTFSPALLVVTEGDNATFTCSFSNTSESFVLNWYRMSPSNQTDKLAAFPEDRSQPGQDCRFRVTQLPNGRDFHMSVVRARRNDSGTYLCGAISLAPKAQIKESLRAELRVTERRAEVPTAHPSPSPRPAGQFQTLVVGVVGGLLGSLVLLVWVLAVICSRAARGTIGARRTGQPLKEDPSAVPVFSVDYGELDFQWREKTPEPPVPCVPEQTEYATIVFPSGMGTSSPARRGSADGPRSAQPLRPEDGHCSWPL
Assay: Jurkat-PD-1 Cell Binding High-Content Screening Assay (CBA): Method 3 (Alexa fluor-647 labeled PD-L1-Ig)
Conditions: Jurkat-PD-1 cells, Alexa fluor-647 labeled PD-L1-Ig 177 nM; head μM; read-out: CBA Method 3 μM
Procedure, shortened: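 Jurkat cells over-expressing human PD-1 in RPMI/10% FCS were preincubated 2 h at 37 °C with compound, then exposed 1 h to Alexa fluor-647 labeled human PD-L1-Ig (177 nM final). Cells fixed in 4% paraformaldehyde with Hoechst 33342 and binding quantified by high-content imaging.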

`CC(C)C[C@H]1NC(=O)[C@H](C)N(C)C(=O)[C@H](Cc2ccc(C(=O)O)cc2)NC(=O)[C@H](Cc2ccc(-c3ccccc3)cc2)NC(=O)[C@H](Cc2ccc(C(=O)O)cc2)NC(=O)[C@H](Cc2cccc(C(F)(F)F)c2)NC(=O)[C@H](CC(=O)O)NC(=O)[C@H](Cc2ccc(C(=O)O)cc2)NC(=O)[C@H](CN2CCOCC2)NC(=O)CSC[C@@H](C(=O)N[C@@H](CCN)C(N)=O)NC(=O)[C@H](CNC(=O)CCF)NC(=O)[C@H](C(C)C)NC(=O)[C@H](CC2CCCCC2)NC(=O)[C@H](CCN)NC1=O` [Example 5233] ({CH2CO}-[Ala(morpholin-4-yl)][Phe(4-COOH)]D[Phe(3-CF3)][Phe(4-COOH)][Bip][Phe(4-COOH)][NMeA][dL][Dab][Cha]V[Dap](X9)C[Dab]-NH2; thioether N-14) was tested. Which IC50 did it give?
Its IC50 is 0.02 µM.

For `Cc1cccc(C[C@@H]2NC(=O)[C@H](CC(=O)O)NC(=O)[C@H](Cc3ccc(OCC(=O)O)cc3)NC(=O)[C@H](CN3CCOCC3)NC(=O)CSC[C@@H](C(=O)N[C@@H](CCN)C(N)=O)NC(=O)[C@H](CCCN)NC(=O)[C@H](C(C)C)NC(=O)[C@H](CC3CCCCC3)NC(=O)[C@H](CCN)NC(=O)[C@@H](CC(C)C)NC(=O)[C@H](C)N(C)C(=O)[C@H](CCC(N)=O)NC(=O)[C@H](Cc3ccc(-c4ccccc4)cc3)NC(=O)[C@H](CCc3ccccc3)NC2=O)c1` [Example 5217] ({CH2CO}-[Ala(morpholin-4-yl)]Y(Carboxymethyl)D[Phe(3-Me)][hPhe][Bip]Q[NMeA][dL][Dab][Cha]V[Orn]C[Dab]-NH2; thioether N-14), which IC50 is on record?
The IC50 was 0.26 µM.

With `Cc1cccc(C[C@@H]2NC(=O)[C@H](CC(=O)O)NC(=O)[C@H](Cc3ccc(-c4ccc(C(=O)O)cc4)cc3)NC(=O)[C@H](CN3CCOCC3)NC(=O)CSC[C@@H](C(=O)N[C@@H](CCN)C(N)=O)NC(=O)[C@H](CCC(=O)O)NC(=O)[C@H](C(C)C)NC(=O)[C@H](CC3CCCCC3)NC(=O)[C@H](CC(N)=O)NC(=O)[C@@H](CC(C)C)NC(=O)[C@H](C)N(C)C(=O)[C@H](Cc3ccc(OCC(=O)O)cc3)NC(=O)[C@H](Cc3ccc(-c4ccccc4)cc3)NC(=O)[C@H](Cc3ccc(-c4ccc(C(=O)O)cc4)cc3)NC2=O)c1` [Example 5128] ({CH2CO}-[Ala(morpholin-4-yl)][Bip(4'-COOH)]D[Phe(3-Me)][Bip(4'-COOH)][Bip]Y(Carboxymethyl)[NMeA][dL]N[Cha]VEC[Dab]-NH2; thioether N-14) as the compound, how does the IC50 read?
Its IC50 is 0.03 µM.

How did the IC50 turn out when `Cc1cccc(C[C@@H]2NC(=O)[C@H](CC(=O)O)NC(=O)[C@H](Cc3ccc(OCC(=O)O)cc3)NC(=O)[C@H](CC3CCCCC3)NC(=O)CSC[C@@H](C(=O)N[C@@H](CCN)C(N)=O)NC(=O)[C@H](CCCN)NC(=O)[C@H](C(C)C)NC(=O)[C@H](CC3CCCCC3)NC(=O)[C@H](CCN)NC(=O)[C@@H](CC(C)C)NC(=O)[C@H](C)N(C)C(=O)[C@H](CCC(N)=O)NC(=O)[C@H](Cc3ccc(-c4ccccc4)cc3)NC(=O)[C@H](CCc3ccccc3)NC2=O)c1` [Example 5218] ({CH2CO}-[Cha]Y(Carboxymethyl)D[Phe(3-Me)][hPhe][Bip]Q[NMeA][dL][Dab][Cha]V[Orn]C[Dab]-NH2; thioether N-14) was run?
The IC50 was 0.02 µM.

How did the IC50 turn out when `CC(=O)Nc1ccc(-c2ccc(C[C@@H]3NC(=O)[C@H](Cc4cccc(C)c4)NC(=O)[C@H](CC(=O)O)NC(=O)[C@H](Cc4ccc(-c5ccc(C(=O)O)cc5)cc4)NC(=O)[C@H](CN4CCOCC4)NC(=O)CSC[C@@H](C(=O)N[C@@H](CCN)C(N)=O)NC(=O)[C@H](CO)NC(=O)[C@H](C(C)(C)O)NC(=O)[C@H](CC4CCCCC4)NC(=O)[C@H](CC(N)=O)NC(=O)[C@@H](CC(C)C)NC(=O)[C@H](C)N(C)C(=O)[C@H](Cc4ccc(OCC(=O)O)cc4)NC(=O)[C@H](Cc4ccc(-c5ccccc5)cc4)NC3=O)cc2)cc1` [Example 5129] ({CH2CO}-[Ala(morpholin-4-yl)][Bip(4'-COOH)]D[Phe(3-Me)][Bip(4'-NHAc)][Bip]Y(Carboxymethyl)[NMeA][dL]N[Cha][Val(3-OH)]SC[Dab]-NH2; thioether N-14) was run?
Its IC50 is 0.03 µM.

With `CC(C)C[C@H]1NC(=O)[C@H](C)N(C)C(=O)[C@H](Cc2ccc(C(=O)O)cc2)NC(=O)[C@H](Cc2ccc(-c3ccccc3)cc2)NC(=O)[C@H](CCc2ccccc2)NC(=O)[C@H](Cc2cccc(C(F)(F)F)c2)NC(=O)[C@H](CC(=O)O)NC(=O)[C@H](Cc2ccc(C(=O)O)cc2)NC(=O)[C@H](CN2CCOCC2)NC(=O)CSC[C@@H](C(=O)N[C@@H](CCN)C(N)=O)NC(=O)[C@H](CNC(=O)CCC(=O)O)NC(=O)[C@H](C(C)C)NC(=O)[C@H](CC2CCCCC2)NC(=O)[C@H](CCN)NC1=O` [Example 5210] ({CH2CO}-[Ala(morpholin-4-yl)][Phe(4-COOH)]D[Phe(3-CF3)][hPhe][Bip][Phe(4-COOH)][NMeA][dL][Dab][Cha]V[Dap](Suc)C[Dab]-NH2; thioether N-14) as the compound, how does the IC50 read?
The IC50 was 0.14 µM.

With `CC(C)C[C@H]1NC(=O)[C@H](C)N(C)C(=O)[C@H](Cc2ccc(C(=O)O)cc2)NC(=O)[C@H](Cc2ccc(-c3ccccc3)cc2)NC(=O)[C@H](Cc2ccc(C(=O)O)cc2)NC(=O)[C@H](Cc2cccc(C(F)(F)F)c2)NC(=O)[C@H](CC(=O)O)NC(=O)[C@H](Cc2ccc(C(=O)O)cc2)NC(=O)[C@H](CN2CCOCC2)NC(=O)CSC[C@@H](C(=O)N[C@@H](CCN)C(N)=O)NC(=O)[C@H](CNC(=O)CCF)NC(=O)[C@H](C(C)C)NC(=O)[C@H](CC2CCCCC2)NC(=O)[C@H](CCN)NC1=O` [Example 5230] ({CH2CO}-[Ala(morpholin-4-yl)][Phe(4-COOH)]D[Phe(3-CF3)][Phe(4-COOH)][Bip][Phe(4-COOH)][NMeA][dL][Dab][Cha]V[Dap](X9)C[Dab]-NH2; thioether N-14) as the compound, how does the IC50 read?
The IC50 was 0.03 µM.

With `CC(=O)Nc1ccc(-c2ccc(C[C@@H]3NC(=O)[C@H](Cc4cccc(C(F)(F)F)c4)NC(=O)[C@H](CC(=O)NS(C)(=O)=O)NC(=O)[C@H](Cc4ccc(C(N)=O)cc4)NC(=O)[C@H]([C@H](C)O)NC(=O)CSC[C@@H](C(=O)N[C@@H](CCN)C(N)=O)NC(=O)[C@H](CC(N)=O)NC(=O)[C@H](C(C)C)NC(=O)[C@H](CC4CCCCC4)NC(=O)[C@H](CCN)NC(=O)[C@@H](CC(C)C)NC(=O)[C@H](C)N(C)C(=O)[C@H](Cc4ccc(C(N)=O)cc4)NC(=O)[C@H](Cc4ccc(-c5ccccc5)cc4)NC3=O)cc2)cc1` [Example 5115] ({CH2CO}-[aThr][Phe(4-CONH2)][X5][Phe(3-CF3)][Bip(4'-NHAc)][Bip][Phe(4-CONH2)][NMeA][dL][Dab][Cha]VNC[Dab]-NH2; thioether N-14) as the compound, how does the IC50 read?
The IC50 was 0.28 µM.

Same assay, conditions: Jurkat-PD-1 cells, Alexa fluor-647 labeled PD-L1-Ig 177 nM; nM; read-out: CBA Method 3

For `CC(=O)Nc1ccc(-c2ccc(C[C@@H]3NC(=O)[C@H](Cc4cccc(C(F)(F)F)c4)NC(=O)[C@H](CC(=O)O)NC(=O)[C@H](Cc4ccc(C(N)=O)cc4)NC(=O)[C@H]([C@H](C)N)NC(=O)CSC[C@@H](C(=O)N[C@@H](CCN)C(N)=O)NC(=O)[C@H](CC(N)=O)NC(=O)[C@H](C(C)C)NC(=O)[C@H](CC4CCCCC4)NC(=O)[C@H](CCN)NC(=O)[C@@H](CC(C)C)NC(=O)[C@H](C)N(C)C(=O)[C@H](Cc4ccc(C(N)=O)cc4)NC(=O)[C@H](Cc4ccc(-c5ccccc5)cc4)NC3=O)cc2)cc1` [Example 5110] ({CH2CO}-[Abu(3S-NH2)][Phe(4-CONH2)]D[Phe(3-CF3)][Bip(4'-NHAc)][Bip][Phe(4-CONH2)][NMeA][dL][Dab][Cha]VNC[Dab]-NH2; thioether N-14), which IC50 is on record?
The IC50 was 0.0088 µM.

`CC(=O)Nc1ccc(-c2ccc(C[C@@H]3NC(=O)[C@H](Cc4cccc(C)c4)NC(=O)[C@H](CC(=O)O)NC(=O)[C@H](Cc4ccc(C(=O)O)cc4)NC(=O)[C@H](CC4CCCCC4)NC(=O)CSC[C@@H](C(=O)N[C@@H](CCN)C(N)=O)NC(=O)[C@H](CCC(=O)O)NC(=O)[C@H](C(C)C)NC(=O)[C@H](CC4CCCCC4)NC(=O)[C@H](CCN)NC(=O)[C@@H](CC(C)C)NC(=O)[C@H](C)N(C)C(=O)[C@H](Cc4ccc(OCC(=O)O)cc4)NC(=O)[C@H](Cc4ccc(-c5ccccc5)cc4)NC3=O)cc2)cc1` [Example 5202] ({CH2CO}-[Cha][Phe(4-COOH)]D[Phe(3-Me)][Bip(4'-NHAc)][Bip]Y(Carboxymethyl)[NMeA][dL][Dab][Cha]VEC[Dab]-NH2; thioether N-14) was tested. Which IC50 did it give?
Its IC50 is 0.0049 µM.

`CC(=O)Nc1ccc(-c2ccc(C[C@@H]3NC(=O)[C@H](Cc4cccc(C(F)(F)F)c4)NC(=O)[C@H](CC(=O)O)NC(=O)[C@H](Cc4ccc(C(=O)O)cc4)NC(=O)[C@H](CN4CCOCC4)NC(=O)CSC[C@@H](C(=O)N[C@@H](CCN)C(N)=O)NC(=O)[C@H](CC(N)=O)NC(=O)[C@H](C(C)C)NC(=O)[C@H](CC4CCCCC4)NC(=O)[C@H](CCN)NC(=O)[C@@H](CC(C)C)NC(=O)[C@H](C)N(C)C(=O)[C@H](CCCN)NC(=O)[C@H](Cc4ccc(-c5ccccc5)cc4)NC3=O)cc2)cc1` [Example 5111] ({CH2CO}-[Ala(morpholin-4-yl)][Phe(4-COOH)]D[Phe(3-CF3)][Bip(4'-NHAc)][Bip][Orn][NMeA][dL][Dab][Cha]VNC[Dab]-NH2; thioether N-14) was tested. Which IC50 did it give?
Its IC50 is 0.0047 µM.

How did the IC50 turn out when `CC(C)C[C@H]1NC(=O)[C@H](C)N(C)C(=O)[C@H](CCCN)NC(=O)[C@H](Cc2ccc(-c3ccccc3)cc2)NC(=O)[C@H](Cc2ccc(-c3ccc(C(=O)O)cc3)cc2)NC(=O)[C@H](Cc2cccc(C(F)(F)F)c2)NC(=O)[C@H](CC(=O)O)NC(=O)[C@H](Cc2ccc(-c3ccc(C(=O)O)cc3)cc2)NC(=O)[C@H](Cc2ccc(OCC(=O)O)cc2)NC(=O)CSC[C@@H](C(=O)N[C@@H](CCN)C(N)=O)NC(=O)[C@H](CCC(N)=O)NC(=O)[C@H](C(C)C)NC(=O)[C@H](CC2CCCCC2)NC(=O)[C@H](CCN)NC1=O` [Example 5120] ({CH2CO}-Y(Carboxymethyl)[Bip(4'-COOH)]D[Phe(3-CF3)][Bip(4'-COOH)][Bip][Orn][NMeA][dL][Dab][Cha]VQC[Dab]-NH2; thioether N-14) was run?
The IC50 was 0.0056 µM.
